Test results published in ChEMBL document CHEMBL4354808, “Drugs for the Treatment of Zika Virus Infection” (J Med Chem, 2020).
Values belong to the compound of their own block, whether it stands above or below them. Non-standard residues stand in square brackets, D forms with d. Residues, ends and D or L forms follow the SMILES beside them. *: point of attachment. Pro(4R-Me) = C[C@H]1CN[C@H](C(=O)O)C1; Oleoyl = CCCCCCCC/C=C\CCCCCCCC(=O)*; hSer = N[C@@H](CCO)C(=O)O

Tests used:
[1] = Cytotoxicity against human NSC; format: cell-based; settings: NSC cells
Zika virus [2] = experiment: Antiviral activity against Zika virus infected in African green monkey Vero cells after 72 hrs by DAPI-staining based assay; format: functional, organism-based
Zika virus [3] = experiment: Antiviral activity against Zika virus H/PAN/2016/BEI-259634 infected in human NSC by CellTiter-Glo assay; format: functional, organism-based
[4] = Cytotoxicity against African green monkey Vero cells; format: cell-based; settings: chlorocebus sabaeus
[5] = Activation of AMPK in African green monkey Vero cells infected with Zika virus PA259459 assessed as antiviral activity measured 24 hrs post infection by plaque assay; format: cell-based; settings: Chlorocebus aethiops
[6] = Inhibition of Protein E in Zika virus infected in African green monkey Vero cells assessed as antiviral activity preincubated for 1 hr followed by viral infection and measured 24 hr post infection by plaque assay; format: cell-based
[7] = Cytotoxicity against human A549 cells; format: cell-based
Zika virus [8] = experiment: Antiviral activity against Zika virus infected in human A549 cells; format: functional, organism-based
[9] = Cytotoxicity against African green monkey Vero E6 cells measured up to 24 to 72 hrs by MTT assay; format: cell-based, Vero C1008; settings: chlorocebus sabaeus
Zika virus [10] = experiment: Antiviral activity against Zika virus infected in African green monkey Vero E6 cells assessed as reduction in virus infectivity at 160 uM preincubated with virus for 1 hr followed by cell infection and measured after 96 hrs by crystal violet staining based assay relative to control; format: functional; settings: Vero C1008
Zika virus [11] = experiment: Antiviral activity against Zika virus infected in African green monkey Vero E6 cells assessed as reduction in virus infectivity preincubated with virus for 1 hr followed by cell infection and measured after 96 hrs by crystal violet staining based assay; format: functional, organism-based; settings: Vero C1008
Zika virus [12] = experiment: Antiviral activity against Zika virus MR 766 infected in African green monkey Vero cells measured 5 days post infection by CellTiter Blue assay; format: functional, organism-based; settings: MR 766, Vero, 120 h
[13] = Cytotoxicity against HBMEC after 5 days by CellTiter Blue assay; settings: human
[14] = Cytotoxicity against human NSC after 5 days by CellTiter Blue assay; format: cell-based; settings: NSC cells
[15] = Cytotoxicity against African green monkey Vero cells after 5 days by CellTiter Blue assay; format: cell-based; settings: chlorocebus sabaeus
Zika virus [16] = experiment: Antiviral activity against Zika virus MR 766 infected in human NSC measured 5 days post infection by CellTiter Blue assay; format: functional, organism-based; settings: MR 766, 120 h
Zika virus [17] = experiment: Antiviral activity against Zika virus MR 766 infected in HBMEC measured 5 days post infection by CellTiter Blue assay; format: functional, organism-based; settings: MR 766, 120 h
Zika virus [18] = experiment: Antiviral activity against Zika virus infected in African green monkey Vero E6 cells assessed as reduction in virus infectivity at 40 uM preincubated with virus for 1 hr followed by cell infection and measured after 96 hrs by crystal violet staining based assay relative to control; format: functional; settings: Vero C1008
[19] = Cytotoxicity against human HuH7 cells by MTS assay; format: cell-based; settings: Huh-7 cells
[20] = (§1) Inhibition of IMPDH in Zika virus MR766 infected in human HuH7 cells assessed as antiviral activity by measuring reduction in viral replication preincubated for 12 hrs followed by viral infection and measured day 2 post infection by qRT-PCR method; format: cell-based; settings: MR766, Huh-7
Zika virus [21] = experiment: as §1; format: cell-based
[22] = Inhibition of DHFR in Zika virus Mex2-81 infected in HBMEC assessed as antiviral activity incubated for 24 hrs
[23] = Cytotoxicity against HBMEC after 24 hrs by resazurin-dye based Alamar blue assay; settings: human
[24] = Cytotoxicity against human JEG3 cells by alamarBlue assay; format: cell-based; settings: JEG-3 cells
Zika virus [25] = experiment: Antiviral activity against Zika virus PRVABC59 Puerto Rico infected in human JEG3 cells after 24 hrs by plaque assay; format: functional, organism-based; settings: JEG-3, 24 h

SMILES: CC[C@H](C)[C@H](NC(=O)[C@H](CO)NC(=O)CNC(=O)[C@H](Cc1ccccc1)NC(=O)[C@H](CC(=O)O)NC(=O)[C@H](Cc1c[nH]c2ccccc12)NC(=O)[C@H](C)N)C(=O)NCC(=O)NCC(=O)N[C@H](C(=O)N[C@@H](Cc1ccccc1)C(=O)N[C@@H](CC(N)=O)C(=O)N[C@@H](CO)C(=O)N[C@H](C(=O)NCC(=O)N[C@@H](CCCCN)C(=O)N[C@@H](C)C(=O)N[C@H](C(=O)N[C@@H](Cc1cnc[nH]1)C(=O)N[C@@H](CCC(N)=O)C(=O)N[C@H](C(=O)N[C@@H](Cc1ccccc1)C(=O)O)C(C)C)C(C)C)[C@@H](C)CC)C(C)C
EC50 [6]: 3.27 µM
CC50 [4]: > 10 µM

SMILES: CCCCCCCC/C=C\CCCCCCCC(=O)N[C@H](C(=O)N1C[C@H](C)C[C@H]1C(=O)N[C@H](C(=O)N[C@@H](CCO)C(=O)N[C@@H](C)C=O)C(C)C)[C@@H](C)O (Oleoyl-T[Pro(4R-Me)]V[hSer]A-aldehyde)
CC50 [7]: 1.65 µM
EC50 (Zika virus [8]): 0.15 µM

SMILES: CCN(CC)CCCC(C)Nc1ccnc2cc(Cl)ccc12 (stereo not drawn) [CHLOROQUINE]
EC50 (Zika virus [12]): 9.82 to 14.2 µM
CC50 at 120 h [13]: 95 to 135 µM
CC50 at 120 h [14]: 95 to 135 µM
CC50 at 120 h [15]: 95 to 135 µM
EC50 (Zika virus [16]): 9.82 to 14.2 µM
EC50 (Zika virus [17]): 9.82 to 14.2 µM

SMILES: Cc1cc(O)c2c(c1)C(=O)c1cc(O)cc(O)c1C2=O [EMODIN]
CC50 [9]: 68.6 µM
inhibition at 40 µM (Zika virus [18]): 88.3%
IC50 (Zika virus [11]): 3.2 µM

Further lines, with some results ahead:

EC50 (Zika virus [2]): 5.95 µM
SMILES: O=C(c1cc(Cl)cc(Cl)c1O)c1[nH]c(F)c(Br)c1Br
CC50 [1]: > 100 µM
EC50 (Zika virus [3]): 8.56 µM
CC50 [4]: > 100 µM

EC50 [5]: 2.6 µM
SMILES: O=C(O)c1c[nH]c2cc(Cl)c(-c3ccc(C4(O)CCC4)cc3)cc12

IC50 (Zika virus [11]): 39.1 µM
SMILES: COc1ccc2cc3[n+](cc2c1OC)CCc1cc2c(cc1-3)OCO2 [BERBERINE]
CC50 [9]: 221 µM
inhibition at 160 µM (Zika virus [10]): 77.6%

EC50 [20]: 0.6 µM
EC90 (Zika virus [21]): 1 µM
SMILES: COc1cc(NC(=O)Nc2cccc(CNC(=O)O[C@H]3CCOC3)c2)ccc1-c1cnco1 [MERIMEPODIB]
CC50 [19]: > 10 µM

EC50 [22]: 0.28 µM
SMILES: CN(Cc1cnc2nc(N)nc(N)c2n1)c1ccc(C(=O)N[C@@H](CCC(=O)O)C(=O)O)cc1 [METHOTREXATE]
CC50 at 24 h [23]: > 10 µM

EC50 (Zika virus [25]): 17.4 µM
SMILES: O=C1C[C@@H](c2ccccc2)Oc2cc(O)cc(O)c21 [PINOCEMBRIN]
CC50 [24]: 251 µM
